Test results reported in patent publication US20060014704A1, “Compounds and their preparation for the treatment of Alzheimer's disease by inhibiting beta-amyloid peptide production” (priority 2004, published 2006).
Entries after “also recorded” stand apart in the source; their conditions may differ. Like-named read-outs stand apart in the source and are kept apart here.

Experiments:
[1] = biological target: T1, γ-secretase cleavage of p75 neurotrophin receptor (p75-ICD) (Homo sapiens, UniProt P49768); test: Cell-free generation of p75-ICD from membrane fractions of 293 cells overexpressing p75-AE; format: biochemical
T1 construct: Membrane fractions isolated from 293 cells overexpressing either APP (A), Notch-AE (B) or p75-AE (C); endogenous in cells; host or cells: 293 cells (membrane fractions); only the substrates APP, Notch-ΔE and p75-ΔE are overexpressed
Procedure: (§1) Membrane fractions isolated from 293 cells overexpressing either APP (A), Notch-AE (B) or p75-AE (C) and incubated in the presence of indicated compounds: Compound E (CpdE, general γ-secretase inhibitor), Rgk351, Rk1 and sulindac sulfide (SS).

[2] = biological target: γ-secretase (Homo sapiens, UniProt P49768); test: Cell-free γ-secretase assay (CHAPSO-solubilized membrane fractions, recombinant substrates, Aβ ELISA); format: biochemical; conditions: for Aβ42 generation in vitro: FIG. 15 (100 μM in A)
Procedure: (A) CHAPSO-solubilized membrane fractions were incubated with recombinant γ-secretase substrates together with the indicated compounds (at 100 μM) and the levels of Aβ42 and Aβ40 were determined by ELISA as described (27-29). (B) Dose-response of Aβ40 and Aβ42-lowering activity of Rk1 and (20S)Rg3 in a cell-free γ-secretase assay.
Next, the inhibitory effects of Rk1 and (20S)Rg3 on Aβ generation in an in vitro γ-secretase assay was studied. […] In contrast, naproxen, an NSAID without Aβ42-lowering activity, had no effects on Aβ42 production (FIG. 15A).

[3] = biological target: T2, γ-secretase cleavage of APP (AICD) (Homo sapiens, UniProt P49768); test: Cell-free generation of AICD from membrane fractions of 293 cells overexpressing APP; format: biochemical
T2 construct: Membrane fractions isolated from 293 cells overexpressing either APP (A), Notch-AE (B) or p75-AE (C); endogenous in cells; host or cells: 293 cells (membrane fractions); only the substrates APP, Notch-ΔE and p75-ΔE are overexpressed
Procedure: as §1

[4] = biological target: T3, γ-secretase cleavage of Notch1 (NICD) (Homo sapiens, UniProt P49768); test: Cell-free generation of NICD from membrane fractions of 293 cells overexpressing Notch-AE; format: biochemical
T3 construct: Membrane fractions isolated from 293 cells overexpressing either APP (A), Notch-AE (B) or p75-AE (C); endogenous in cells; host or cells: 293 cells (membrane fractions); only the substrates APP, Notch-ΔE and p75-ΔE are overexpressed
Procedure: as §1

[5] = test system: Aβ40 and Aβ42 production, CHO cells stably transfected with human APP695; test: Secreted Aβ40/Aβ42 ELISA in CHO cells expressing human APP (CHO-APP cells); format: cell-based, Chinese hamster; set-up: key to Aβ42-lowering activity: Aβ42-lowering activity (“Yes”); no profound effects (“No”); non-determined (“ND”); Ginsenosides that affected cell viability are indicated as “Cytotoxic.”; conditions: for Aβ42-lowering activity: summary of Tables 1-3; for preference for Aβ42 vs. Aβ40 in cell-based assay: FIG. 6 / FIG. 12B; for production of Aβ42 in cells: general statement
Procedure: The CHO cells were treated with the indicated compounds (at 50 μg/ml) for 8 hrs. Aβ42 levels in the medium were measured by ELISA and normalized to intracellular full-length APP.
The potential effects of ginsenosides and their analogues in treating AD were examined. First, a number of ginsenosides were screened based on their effects on Aβ generation. The effects of various ginsenosides on Aβ (e.g., Aβ40 and Aβ42) production was initially accessed by incubating the Chinese hamster ovary (CHO) cells expressing human APP(CHO-APP cells) with each ginsenoside purified from unprocessed ginseng (known as “white ginseng”). These representative ginsenosides included Rb1, Rb2, Rc, Rd, Re, Re, Rg1 and Rg2 and differ in their side chains and sugar moieties.
After 8 hours of incubation, the media were collected and the levels of secreted Aβ40 and Aβ42 were determined by ELISA.

[6] = test system: Aβ40 and Aβ42 production, CHO-APP/PS1 cells; test: Secreted Aβ ELISA in CHO-APP/PS1 cells (wild-type PS1); format: cell-based, Chinese hamster; conditions: for secretion of Aβ42: heat-processing derived ginsenosides; for secretion of Aβ42 / potency of Aβ42-reducing activity (rank): 50 μM, 8 hrs, FIG. 11
Procedure: (§2) The effects of Rg5 on the Aβ42 generation were much smaller as compared to Rgk351 and Rk1.
(§3) FIG. 10 depicts the effects of native ginsenosides on Aβ42 production. CHO cells stably transfected with human APP695 together with either wild-type (A, CHO-APP/PS1 cells) or ΔE9 FAD mutant (B, CHO-APP/ΔE9PS1 cells) forms of PS1 were used. Cells were treated with the indicated compounds (at 50 μM) for 8 hrs. Levels of secreted Aβ40 and Aβ42 in the medium were determined by ELISA and normalized to intracellular full-length APP. In CHO-APP/PS1 cells, average Aβ amounts in control samples were 320 pM for Aβ40 and 79 pM for Aβ42. The relative levels of Aβ and Aβ42 were normalized to values obtained from non-treated and vehicle-treated cells and are shown as % to control+s.d.). One of three representative experiments are shown.
(§4) CHO-APP/PS1 (A) and CHO-APP/ΔE9PS1 (B) cells were treated with the indicated compounds at 50 μM for 8 hrs and the levels of secreted Aβ40 and Aβ42 were determined as described in FIG. 1. […] The PS1-ΔE9 FAD mutation diminished the Aβ42 response to Rk1 treatment (B).

[7] = test system: cell viability; test: Cell viability of treated cells; format: cell-based; set-up: key to affected cell viability (Cytotoxic): Aβ42-lowering activity (“Yes”); no profound effects (“No”); non-determined (“ND”); Ginsenosides that affected cell viability are indicated as “Cytotoxic.”
Procedure: as §4
Tables 1-3 Structure of ginsenosides utilized in the study and their effects on Aβ42 generation. They differ at the two or three side chains attached to the common triterpene backbone known as dammarane. The common structure skeleton for each group of ginsenosides is shown in the top panel. Ginsenosides that harbor Aβ42-lowering activity are indicated in the far right column of the tables: Aβ42-lowering activity (“Yes”), no profound effects (“No”), and non-determined (“ND”). Ginsenosides that affected cell viability are indicated as “Cytotoxic.” Abbreviation for carbohydrates are as follows: Glc, D-glucopyranosyl; Ara (pyr), L-arabinopyranosyl; Ara (fur), L-arabinofuranyosyl; Rha, L-rhamnopyranosyl.
Steaming ginseng at high temperature gave rise to additional ginsenosides with enhanced pharmacological activity, including (20S)Rg3, Rk1 and Rg5 (22-25). […] Aβ40 levels were not changed by treatment with any of the ginsenosides tested. The potency of Aβ42-lowering activity was highest with Rk1 and (20S)Rg3. […] These studies provide a structure-activity relationship between the chemical structures of ginsenosides and Aβ42-lowering activity, further providing the basis for designing additional Aβ42-lowering analogues as well as for defining a class of compounds that harbor Aβ42-lowering activity.

[8] = test system: Aβ40 and Aβ42 secretion, primary embryonic cortical neurons; test: Aβ secretion in primary embryonic cortical neurons derived from Tg2576 transgenic mice; format: cell-based, mouse
Source text: Treatment of Rk1 and Rg3 decreased the level of secreted Aβ40 and Aβ42.

[9] = test system: Aβ42 production, CHO-APP/ΔE9PS1 cells; test: Secreted Aβ ELISA in CHO cells co-expressing human APP and FAD mutant PS1 (ΔE9, L286V); format: cell-based, Chinese hamster; conditions: 50 μM, 8 hrs, FIG. 11B vs 11A
Procedure: as §2, §3, §4

[10] = test system: Aβ species, CHO-APP cells; test: Mass spectrometric analysis of Aβ species produced from CHO-APP cells; format: cell-based, Chinese hamster; conditions: mass spectrometry, vs DMSO
Procedure: Note that treatment leads to a decrease in Aβ42 species (1-42), and elevation in both Aβ37 (1-37) and Aβ38 (1-38). Mass spectrometric analysis of Aβ species were performed as previously described (Wang R, Sweeny D, Gandy S E, Sisodia S S. The profile of soluble amyloid β-protein in cultured cell media. J. Bio. Chem. 1996; 271: 31894-31902).

[11] = test system: Aβ42 production in mammalian cells; conditions: Tae-Wan Kim et al., patent application pending; cited from earlier work
[12] = test system: full-length APP and APP C-terminal fragments, Neuro2a-APPsw cells; test: Western blot analysis of APP processing in neuro2a cells expressing APPsw; format: cell-based, mouse; conditions: neuro2a cells expressing APPsw
Source text: (§5) FIG. 13. depicts an analysis of APP processing after Rk1 treatment. Steady-state levels of full-length APP and APP C-terminal fragments (APP-CTFs) were examined by Western blot analysis using anti-R1 antibody. […] Correlated Aβ42 levels for each sample are shown in the bottom panel.

[13] = test system: full-length APP and APP C-terminal fragments, CHO-APP cells; test: Western blot analysis of APP processing in CHO-APP cells; format: cell-based, Chinese hamster; conditions: cell lysates
Source text: as §5

CSc1ccc(/C=C2/C(C)=C(CC(=O)O)c3cc(F)ccc32)cc1 [sulindac sulfide]
cell-free generation of p75-ICD ([1]; listed as SS): abundantly produced
cell-free generation of p75-ICD ([1]; listed as sulinac sulfide): did not affect
Aβ42 generation in vitro ([2]; cell-free γ-secretase assay): potently inhibited
cell-free generation of AICD ([3]; listed as SS): abundantly produced
cell-free generation of AICD ([3]; listed as sulinac sulfide): did not affect
cell-free generation of NICD ([4]; listed as SS): abundantly produced
cell-free generation of NICD ([4]; listed as sulinac sulfide): did not affect
Aβ40 production ([5]; overnight treatment, FIG. 12B): slightly affected

CC(C)=CCC[C@](C)(O)[C@H]1CC[C@]2(C)[C@@H]1[C@H](O)C[C@@H]1[C@@]3(C)CC[C@H](O[C@@H]4O[C@H](CO)[C@@H](O)[C@H](O)[C@H]4O)C(C)(C)[C@@H]3CC[C@]12C [Rh2]
secretion of Aβ42 [6]: exhibited Aβ42-lowering effects
cell viability ([7]; 50 μM treatment): partially affected
affected cell viability (Cytotoxic) ([7]; summary of Tables 1-3): Cytotoxic
Aβ42-lowering activity [5]: Yes

CC(C)=CCCC(C)(O)C1CCC2(C)C1C(O)CC1C3(C)CCC(OC4OC(CO)C(O)C(O)C4OC4OC(CO)C(O)C(O)C4O)C(C)(C)C3CCC12C [(20S)Rg3]
level of secreted Aβ40 [8]: decreased
level of secreted Aβ42 [8]: decreased
Aβ generation in a cell-free γ-secretase assay ([2]; FIG. 15): inhibits Aβ generation
Aβ42 generation in vitro ([2]; cell-free γ-secretase assay): inhibited both Aβ40 and Aβ42 with a similar potency
Aβ40 generation in vitro ([2]; cell-free γ-secretase assay, FIG. 15B): inhibited both Aβ40 and Aβ42 with a similar potency
IC50 ([2]; cell-free γ-secretase assay, FIG. 15B, read-out: IC50 for Aβ40): 27 ± 4 µM
IC50 ([2]; cell-free γ-secretase assay, FIG. 15B, read-out: IC50 for Aβ42): 26 ± 7 µM
Aβ42-lowering response in PS1 ΔE9 FAD mutant cells compared to PS1 wild-type cells [9]: diminished
potency of Aβ42-reducing activity (rank) [6]: Rk1>/=(20S)Rg3>Rg5>(20R)Rg3; also recorded: highest
secretion of Aβ42 [6]: selectively lowered the secretion of Aβ42
Aβ37 (1-37) [10]: elevation
Aβ38 (1-38) [10]: elevation
Aβ42 species (1-42) [10]: decrease
production of Aβ42 in mammalian cells [11]: lower the production of Aβ42
preference for Aβ42 vs. Aβ40 in cell-based assay [5]: primarily affect Aβ42 production
production of Aβ42 in cells [5]: lower the production of Aβ42

CC(C)=CC/C=C(\C)[C@H]1CC[C@]2(C)[C@@H]1[C@H](O)C[C@@H]1[C@@]3(C)CC[C@H](O[C@@H]4O[C@H](CO)[C@@H](O)[C@H](O)[C@H]4O[C@@H]4O[C@H](CO)[C@@H](O)[C@H](O)[C@H]4O)C(C)(C)[C@@H]3CC[C@]12C [Rg5]
APP C-terminal fragments, steady-state levels [12]: increased accumulation
Aβ42-lowering response in PS1 ΔE9 FAD mutant cells compared to PS1 wild-type cells [9]: diminished
potency of Aβ42-reducing activity (rank) [6]: Rk1>/=(20S)Rg3>Rg5>(20R)Rg3; also recorded: less effective
secretion of Aβ42 [6]: selectively lowered the secretion of Aβ42
effects on Aβ42 generation compared to Rgk351 and Rk1 ([6]; wild-type or FAD mutant presenilin 1, FIG. 8): much smaller
APP C-terminal fragments (γ-secretase substrates), steady-state levels [13]: increased accumulation
full-length APP levels [13]: not affected
production of Aβ42 in mammalian cells [11]: lower the production of Aβ42
generation of Aβ42 (Aβ42 levels in the medium, ELISA, normalized to intracellular full-length APP) ([5]; 50 μg/ml, 8 hrs, FIG. 4): reduce the generation of Aβ42
Aβ42-lowering effect compared with other agents ([5]; CHO-APP cells): much smaller
preference for Aβ42 vs. Aβ40 in cell-based assay [5]: preferentially reduced Aβ42 (vs. Aβ40)
Aβ42 in the medium, dose-response ([5]; dose-dependent, FIG. 5 / FIG. 12A): reduced Aβ42; also recorded: lower Aβ42 in a dose-dependent manner
production of Aβ42 in cells [5]: lower the production of Aβ42
Aβ42 production ([5]; overnight treatment, FIG. 12B): reduce Aβ42 production
Aβ42-lowering activity [5]: Yes
